Reference: patent publication US20120010148A1, “COMBINATION THERAPIES USING NAP” (ALLON THERAPEUTICS INC., priority 2008, published 2012)
Ends that are not written are not given here.

How the values were obtained:
[1] = tested on: STOP+/− male mice; assay: Mortality under chronic clozapine with or without intranasal NAP; assay type: in vivo, mouse; conditions: clozapine 10 mg/kg IP daily, n=4
Description: STOP+/− male mice (6 months old in average, n=4) received daily doses of 10 mg/kg intraperitoneal injection (IP) of clozapine (5 days a week), for the duration of the experiment (5 weeks). Clozapine (10 mg/kg) was solubilized under acidic conditions (pH ˜2.0 with HCl), and the solutions titrated back to ˜pH 7.4 with NaOH. In addition, these mice received daily intranasal vehicle solution that included the following ingredients (per milliliter): 7.5 mg of NaCl, 1.7 mg of citric acid monohydrate, 3 mg of disodium phosphate dihydrate, and 0.2 mg of benzalkonium chloride solution (50%) (Alcalay et al., Neurosci Lett 361, 128-131, 2004).
A combination of clozapine with NAP experiment included an additional four mice (6 months old in average) that were injected with clozapine and administered with NAP intranasally in the vehicle delineated above (Alcalay et al., Neurosci Lett 361, 128-131, 2004). NAP or vehicle solution was administered daily to mice hand-held in a semi-supine position with nostrils facing the investigator. A pipette tip was used to administer 2.5 μl/nostril. The mouse was hand-held until the solution was totally absorbed (˜10 s).
The experiment continued for 5 weeks.

[2] = tested on: Human SH-SY5Y neuroblastoma; assay: Clozapine-induced cell death in SH-SY5Y cells, MTS assay; assay type: cell-based; conditions: clozapine 20 μg/ml, 24 hours, FIG. 1
Description: Clozapine, a widely used anti psychotic drug may be associated with increased cell mortality. It was not known, however, whether NAP ([…], SEQ ID NO:2) treatment would inhibit clozapine associated neuronal death. To address this question and validate the efficiency of using a NAP-clozapine combination drug candidate, an experimental test system in cell culture was established (Heiser et al., Journal of Psychopharmacology 21(8):851-856 (2007)). Human SH-SY5Y neuroblastoma supplemented with 15% fetal calf serum (FCS) (Beit-Haemek, Israel), 1% penicillin-streptomycin, and 1% glutamine were incubated in a 5% CO2 atmosphere. Thirty-six thousand cells/well (in a 96 well plates) were plated 24 hours prior to the clozapine or NAP treatment. Clozapine (CLZ) was obtained from Sigma Chemicals (Sigma, Israel). Thirty-six thousand cells per well (in at least 6 replicate wells) were exposed to clozapine (CLZ, 20 μg/ml) or clozapine (CLZ, 20 μg/ml)+NAP or NAP alone (10^−15M-10^−10 M) for 24 hours at 37° C. Drug and control solutions were dissolved in ethanol. Measurement of metabolic activity and survival was determined by non-radioactive cell proliferation assay (MTS) (Promega, USA) and evaluated by an ELISA-reader at 490 nm wavelength.

[3] = tested on: neurons of the central nervous system; conditions: in vitro assays and in vivo disease models; cited from earlier work
[4] = tested on: STOP−/− mice; conditions: STOP−/− schizophrenia model; cited from earlier work
[5] = tested on: MS; conditions: daily subcutaneous injections, 20 mg/injection; cited from earlier work

CN1CCN(C2=Nc3cc(Cl)ccc3Nc3ccccc32)CC1 [clozapine, Clozapine]
death ([1]; after 2.5 weeks of treatment): 50%
death (cumulative) ([1]; at ~4.5 weeks): 75%
cell death [2]: about 60%

SALLRSIPA
survival of neurons in response to various insults [3]: keep neurons of the central nervous system alive

C/C1=C/C[C@@H](/C(C)=C/c2csc(C)n2)OC(=O)C[C@H](O)C(C)(C)C(=O)[C@H](C)[C@@H](O)[C@@H](C)CCC1 [epothilone D]
synaptic function and behavior [4]: ameliorates synaptic function and behavior

glatiramer acetate
relapse rates, progression of disability, new MRI lesions [5]: reduce relapse rates, progression of disability, appearance of new lesions
